The values below come from patent US11957683B2, “Bicyclic compounds” (Aligos Therapeutics, Inc., priority 2021, dated 2024).

Series [1] relates to HBV. Nature of the series: HBV-DNA antiviral assay using HepG2.117 cells. Type of series: cell-based, HBV genotype D. To be noted: HBV DNA inhibition, intracellular HBV DNA by qPCR, HepG2.117 cells, 3 days incubation, read-out: EC50. As to the method:
(§1) The following assay procedure describes the HBV antiviral assay, using HepG2.117 cells, which carry a stably integrated genotype D HBV genome under the control of a Tet-off promoter, and intracellular HBV DNA quantification as endpoint. Cell viability is assessed in parallel by measuring the intracellular ATP content using CellTiter-Glo 2.0 (Promega).
On day 0, HepG2.117 cells (which are maintained in routine cell culture with doxycycline present in the medium at a final concentration of 1 μg/mL) are seeded in 96-well plates (white with clear bottom) at a density of 2.0×10^4 cells/well (0.1 mL/well) in medium without doxycycline to induce pgRNA transcription and subsequent formation of HBV particles. The cells are incubated at 37° C. and 5% CO2.
(§2) On day 1, medium is removed from each well, the test articles are diluted in culture medium without doxcycyline and 100 μL was added to cell culture wells (9 concentrations, 4-fold dilution). For each plate, 6 untreated (merely DMSO) wells are included. The final concentration of DMSO in the culture medium is 2%. Each plate is prepared in duplicate (one for HBV DNA extraction, one for CellTiter-Glo 2.0 measurement). The cells are incubated at 37° C. and 5% CO2 for 3 days.
(§3) On day 4, cell viability is assessed using CellTiter-Glo 2.0 and cell lysates are prepared for HBV DNA extraction and subsequent quantification by qPCR.
Medium is removed from each well and 100 μL of 0.33% NP-40 in H2O was added to each well. Plates are sealed, incubated at 4° C. for 5 mins, vortexed extensively and centrifuged briefly. Next, 35 μL of lysate is added to 65 μL QuickExtract DNA Extraction Solution (Epicentre) in a PCR plate for each well. PCR plate is incubated at 65° C. for 6 mins, 98° C. for 2 mins and finally cooled to 4° C. HBV DNA is then quantified by qPCR with HBV-specific primers and probes as specified in Table 2 using the Bio-Rad SSOAdvanced Universal Probes Supermix on a CFX96 machine (Bio-Rad). The PCR cycle program consisted of 95° C. for 3 mins, followed by 40 cycles at 95° C. for 10 sec and 60° C. for 30 sec.
A DNA standard is prepared by dilution of an IDT gBlock corresponding to the amplicon with concentrations ranging from 10^2 to 10^8 copies/input (i.e., per 4 μL) and used to generate a standard curve by plotting Cq values vs. HBV DNA standard concentration. The quantity of HBV DNA in each sample is determined by interpolating from the standard curve.
(§4) Cell viability is calculated as follows: % Cell viability=(luminescence value of test sample)/(average luminescence value of 2% DMSO control)×100%. HBV DNA inhibition was calculated as follows: 100−(HBV DNA copy number of test sample)/(average HBV DNA copy number of 2% DMSO control)×100%. No normalization to entecavir is required due to the excellent dynamic window of this assay. The CC50, EC50 and EC90 values were determined by dose-response curves fitted using non-linear regression.

The subject of series [2] is HepG2.117 cells. Nature of the series: Cell viability by CellTiter-Glo 2.0 (intracellular ATP) in HepG2.117 cells. The class given is cell-based. To be noted: CellTiter-Glo 2.0, HepG2.117 cells, 3 days incubation. As to the method: as §1, §2, §3
(§5) Using the other plates, the cell viability is quantified by CellTiter-Glo 2.0 according to the manufacturer's manual. In brief, 100 μL of reagent solution is added to the culture plates and shaken for 2′. The plates are incubated at rt for 10 min and luminescence signal is subsequently measured on a VarioSkan Lux (ThermoFisher) plate reader.
as §4
For orientation: In ATP-based viability assays light output follows the ATP content of the culture.

Assay in series [3]: as above
The class given is cell-based. To be noted: human, CellTiter-Glo 2.0, HepG2.117 cells, 3 days incubation. How it is done: as §1, §2, §3, §5, §4

pEC50: −log10 of the molar value. Where two headings read alike, the source gives them in different places.

What is called pEC50 is −log10 of the EC50, conventionally taken in molar units. By CC50 is commonly meant the concentration giving 50% cytotoxicity. Take `C=C[C@H](C)Nc1nc2c(c(=O)n1-c1ccc(C(=O)NC)cc1Cl)C[C@@H](C)N(C(=O)c1ccc(Br)c(C(F)(F)F)c1)C2` (atropisomer, axis not shown) [Compound 45, 4-[(6R)-7-[4-bromo-3-(trifluoromethyl)benzoyl]-6-methyl-2-[[(1S)-1-methylallyl]amino]-4-oxo-6,8-dihydro-5H-pyrido[3,4-d]pyrimidin-3-yl]-3-chloro-N-methyl-benzamide]: in series [1], the pEC50 is greater than 7.30. Also, half-maximal cytotoxicity in series [2] (CC50) was put at 30.1 µM.

With `C=CC(C)Nc1nc2c(c(=O)n1-c1ccc(C(=O)NC)cc1)C[C@@H](C)N(C(=O)c1ccc(Br)c(C(F)(F)F)c1)C2` (single isomer, unassigned) [Compound 2b], in series [1], the pEC50 is greater than 7.30. Moreover, the CC50 in series [2] is greater than 0.5 µM.

In the case of `C=CC(C)Nc1nc2c(c(=O)n1-c1ccc(-c3[nH]nnc3C)cc1)C[C@@H](C)N(C(=O)c1ccc(Br)c(C(F)(F)F)c1)C2` (single isomer, unassigned) [Compound 3b], the pEC50 in series [1] is greater than 7.30. In series [2], this compound registered a half-maximal cytotoxic concentration (CC50) greater than 0.5 µM.

On to `C=C[C@H](C)Nc1nc2c(c(=O)n1-c1cc3ncn(C)c3cc1F)C[C@@H](C)N(C(=O)c1ccc(Br)c(C(F)(F)F)c1)C2` [Compound 32b, (R)-7-(4-bromo-3-(trifluoromethyl)benzoyl)-2-(((S)-but-3-en-2-yl)amino)-3-(6-fluoro-1-methyl-1H-benzo[d]imidazol-5-yl)-6-methyl-5,6,7,8-tetrahydropyrido[3,4-d]pyrimidin-4(3H)-one], for which, in series [1], the pEC50 is greater than 7.30. Further, the CC50 in series [2] is 21.9 µM.

Consider `C=C[C@H](C)Nc1nc2c(c(=O)n1-c1ccc3c(c1)ncn3C1CC1)C[C@@H](C)N(C(=O)c1ccc(Br)c(C(F)(F)F)c1)C2` [Compound 38, (6R)-7-[4-bromo-3-(trifluoromethyl)benzoyl]-3-(1-cyclopropylbenzimidazol-5-yl)-6-methyl-2-[[(1S)-1-methylallyl]amino]-6,8-dihydro-5H-pyrido[3,4-d]pyrimidin-4-one], for which the pEC50 in series [1] (Hepatitis B virus, 72 h) was greater than 7.30. In series [3], the midpoint of cytotoxicity, the CC50 at 3 days, lay at 24.3 µM.

Turning to `C=C[C@H](C)Nc1nc2c(c(=O)n1-c1ccc(OC[C@@H](C)O)cn1)C[C@@H](C)N(C(=O)c1ccc(Br)c(C(F)(F)F)c1)C2` [Compound 39, (6R)-7-[4-bromo-3-(trifluoromethyl)benzoyl]-3-[5-[(2R)-2-hydroxypropoxy]-2-pyridyl]-6-methyl-2-[[(1S)-1-methylallyl]amino]-6,8-dihydro-5H-pyrido[3,4-d]pyrimidin-4-one], the pEC50 in series [1] (Hepatitis B virus, 72 h) was greater than 7.30. This compound also came in with a CC50 at 3 days in series [3] of 28.1 µM.

Take `C=C[C@H](C)Nc1nc2c(c(=O)n1-c1ccc3c(ncn3C)n1)C[C@@H](C)N(C(=O)c1ccc(Br)c(C(F)(F)F)c1)C2` [Compound 40, (6R)-7-[4-bromo-3-(trifluoromethyl)benzoyl]-6-methyl-2-[[(1S)-1-methylallyl]amino]-3-(1-methylimidazo[4,5-b]pyridin-5-yl)-6,8-dihydro-5H-pyrido[3,4-d]pyrimidin-4-one]: in series [1] (Hepatitis B virus, 72 h), the negative logarithm of the EC50 (pEC50) is greater than 7.30. Moreover, the CC50 at 3 days in series [3] is greater than 50 µM.

For the compound `C=C[C@H](C)Nc1nc2c(c(=O)n1-c1ccc(C(=O)NC)nc1)C[C@@H](C)N(C(=O)c1ccc(Br)c(C(F)(F)F)c1)C2` [Compound 41, 5-[(6R)-7-[4-bromo-3-(trifluoromethyl)benzoyl]-6-methyl-2-[[(1S)-1-methylallyl]amino]-4-oxo-6,8-dihydro-5H-pyrido[3,4-d]pyrimidin-3-yl]-N-methyl-pyridine-2-carboxamide], in series [1] (Hepatitis B virus, 72 h), the pEC50 was greater than 7.30. Further, in series [3], the CC50 at 3 days was greater than 50 µM.

Take `C=C[C@H](C)Nc1nc2c(c(=O)n1-c1cnc(C(=O)NC)c(Cl)c1)C[C@@H](C)N(C(=O)c1ccc(Br)c(C(F)(F)F)c1)C2` [Compound 42, 5-[(6R)-7-[4-bromo-3-(trifluoromethyl)benzoyl]-6-methyl-2-[[(1S)-1-methylallyl]amino]-4-oxo-6,8-dihydro-5H-pyrido[3,4-d]pyrimidin-3-yl]-3-chloro-N-methyl-pyridine-2-carboxamide]: in series [1] (Hepatitis B virus, 72 h), the pEC50 is greater than 7.30. In series [3], this compound gave a CC50 at 3 days greater than 50 µM.

As to `C=C[C@H](C)Nc1nc2c(c(=O)n1-c1ncc(C(=O)NC)cn1)C[C@@H](C)N(C(=O)c1ccc(Br)c(C(F)(F)F)c1)C2` [Compound 43, 2-[(6R)-7-[4-bromo-3-(trifluoromethyl)benzoyl]-6-methyl-2-[[(1S)-1-methylallyl]amino]-4-oxo-6,8-dihydro-5H-pyrido[3,4-d]pyrimidin-3-yl]-N-methyl-pyrimidine-5-carboxamide], in series [1] (Hepatitis B virus, 72 h), the pEC50 was greater than 7.30. The CC50 at 3 days in series [3] was greater than 50 µM.

For `C=C[C@H](C)Nc1nc2c(c(=O)n1-c1cnc3c(ncn3C)n1)C[C@@H](C)N(C(=O)c1ccc(Br)c(C(F)(F)F)c1)C2` [Compound 46, (6R)-7-[4-bromo-3-(trifluoromethyl)benzoyl]-6-methyl-2-[[(1S)-1-methylallyl]amino]-3-(1-methylimidazo[4,5-b]pyrazin-5-yl)-6,8-dihydro-5H-pyrido[3,4-d]pyrimidin-4-one], the negative-log EC50 (pEC50) in series [1] (Hepatitis B virus, 72 h) is greater than 7.30. The same compound yielded a CC50 at 3 days in series [3] greater than 50 µM.

`C=C[C@H](C)Nc1nc2c(c(=O)n1-c1cc(C)c3c(c1)ncn3C)C[C@@H](C)N(C(=O)c1ccc(Br)c(C(F)(F)F)c1)C2` [Compound 47, (6R)-7-[4-bromo-3-(trifluoromethyl)benzoyl]-3-(1,7-dimethylbenzimidazol-5-yl)-6-methyl-2-[[(1S)-1-methylallyl]amino]-6,8-dihydro-5H-pyrido[3,4-d]pyrimidin-4-one]: the pEC50 in series [1] (Hepatitis B virus, 72 h) was greater than 7.30. Moreover, the CC50 at 3 days in series [3] turned out to be 23.7 µM.

For `C=C[C@H](C)Nc1nc2c(c(=O)n1-c1cc(F)c3c(c1)ncn3C)C[C@@H](C)N(C(=O)c1ccc(Br)c(C(F)(F)F)c1)C2` [Compound 48, (6R)-7-[4-bromo-3-(trifluoromethyl)benzoyl]-3-(7-fluoro-1-methyl-benzimidazol-5-yl)-6-methyl-2-[[(1S)-1-methylallyl]amino]-6,8-dihydro-5H-pyrido[3,4-d]pyrimidin-4-one], in series [1] (Hepatitis B virus, 72 h), the pEC50 is greater than 7.30. In series [3], this compound yielded a CC50 at 3 days of 26 µM.

Regarding `C=C[C@H](C)Nc1nc2c(c(=O)n1-c1cc(F)c3ncn(C)c3c1)C[C@@H](C)N(C(=O)c1ccc(Br)c(C(F)(F)F)c1)C2` [Compound 49, (6R)-7-[4-bromo-3-(trifluoromethyl)benzoyl]-3-(7-fluoro-3-methyl-benzimidazol-5-yl)-6-methyl-2-[[(1S)-1-methylallyl]amino]-6,8-dihydro-5H-pyrido[3,4-d]pyrimidin-4-one], the pEC50 in series [1] (Hepatitis B virus, 72 h) was greater than 7.30. The compound further displayed a CC50 at 3 days in series [3] of 23 µM.

In the case of `C#Cc1ccc(C(=O)N2Cc3nc(N[C@@H](C)C=C)n(-c4ccc(C(=O)NC)cc4)c(=O)c3C[C@H]2C)cc1C(F)(F)F` [Compound 50, 4-[(6R)-7-[4-ethynyl-3-(trifluoromethyl)benzoyl]-6-methyl-2-[[(1S)-1-methylallyl]amino]-4-oxo-6,8-dihydro-5H-pyrido[3,4-d]pyrimidin-3-yl]-N-methyl-benzamide], the pEC50 in series [1] (Hepatitis B virus, 72 h) was greater than 7.30. The CC50 at 3 days in series [3] is greater than 50 µM.
